“And” between values parts separate entries of the source, which are not always exact repeats. Equal values may be shown once.

This data set in a line: UV absorption properties (λmax, molar extinction coefficient ε, efficiency E 1%, 1 cm). Conditions: for ε (molar extinction coefficient): values in order of the λmax values; for shift / increase in λmax: versus base enaminoketone or alkanoyl counterparts. Type of data set: physicochemical.

For `CC(=O)CC1=CC(C)(C)CCN1CC(C)C`, where the note is “Table 12”, the “E (1%, 1 cm)” value is recorded as 675 and the ε was 16000 M⁻¹ cm⁻¹. The λmax (Table 12, 2-substituted compounds) was 314 nm. Take `CC(C)CN1C=C(C(=O)CCC=Cc2ccc(COc3ccc(C(=O)CC(=O)c4ccc(C(C)(C)C)cc4)cc3)cc2)C(C)(C)CC1` (racemic) [Compound 10, 1-(4-(tert-butyl)phenyl)-3-(4-((4-(5-(1-isobutyl-4,4-dimethyl-1,4,5,6-tetrahydropyridin-3-yl)-5-oxopent-1-en-1-yl)benzyl)oxy)phenyl)propane-1,3-dione]: the “UV λmax” value is 314 nm and 357 nm; the “ε (molar extinction coefficient)” value is 23250 M⁻¹ cm⁻¹ and 24050 M⁻¹ cm⁻¹. As for `COc1ccc(C(=O)C(CCCCCC(=O)C2=CN(CC(C)C)CCC2(C)C)C(=O)c2ccc(C(C)(C)C)cc2)cc1` (stereo not drawn) [Compound 5], the “UV λmax” value was 306 nm.

On to `C=CCCC(=O)C1=CN(CC(C)C)CCC1(C)C` [Compound 8, 1-(1-Isobutyl-4,4-dimethyl-1,4,5,6-tetrahydropyridin-3-yl)pent-4-en-1-one], for which the “UV λmax” value is 308 nm and the “ε (molar extinction coefficient)” value stood at 35000 M⁻¹ cm⁻¹. On the same counts, the results for `CC(C)(C)c1ccc(C(=O)CC(=O)c2ccc(OCc3ccc(Br)cc3)cc2)cc1` [Compound 9, 1-(4-((4-bromobenzyl)oxy)phenyl)-3-(4-(tert-butyl)phenyl)propane-1,3-dione] are 357 nm and 35500 M⁻¹ cm⁻¹.

As for `CC(C)CN1C=C(C(=O)c2ccc(C(C)(C)C)cc2)C(C)(C)CC1` [Compound 11, (4-(tert-butyl)phenyl)(1-isobutyl-4,4-dimethyl-1,4,5,6-tetrahydropyridin-3-yl)methanone], the “UV λmax” value came out at 317 nm, the “ε (molar extinction coefficient)” value was 19000 M⁻¹ cm⁻¹ and the “shift / increase in λmax” value is given as “approximately 11 nm”. As for `COc1ccc(C(=O)C2=CN(CC(C)C)CCC2(C)C)cc1` [Compound 12, (1-isobutyl-4,4-dimethyl-1,4,5,6-tetrahydropyridin-3-yl) (4-methoxyphenyl)methanone], the “UV λmax” value was 319 nm and the “shift / increase in λmax” value is “approximately 11 nm”. As for `COc1ccc(C(=O)CC(=O)C2=CN(CC(C)C)CCC2(C)C)cc1` [Compound 13, 1-(1-isobutyl-4,4-dimethyl-1,4,5,6-tetrahydropyridin-3-yl)-3-(4-methoxyphenyl)propane-1,3-dione], the “UV λmax” value was 293 nm and 396 nm; the “ε (molar extinction coefficient)” value was 14250 M⁻¹ cm⁻¹ and 11150 M⁻¹ cm⁻¹. On to `CC(C)CN1C=C(C(=O)c2ccc(N(C)C)cc2)C(C)(C)CC1` [Compound 15, (4-(dimethylamino)phenyl)(1-isobutyl-4,4-dimethyl-1,4,5,6-tetrahydropyridin-3-yl)methanone], for which the “UV λmax” value was found to be 336 nm and the “ε (molar extinction coefficient)” value is 17000 M⁻¹ cm⁻¹. On the same counts, the results for `CC(C)CN1C=C(C(=O)c2ccc(Br)cc2)C(C)(C)CC1` [Compound 16, (4-bromophenyl)(1-isobutyl-4,4-dimethyl-1,4,5,6-tetrahydropyridin-3-yl)methanone] are 318 nm and 22500 M⁻¹ cm⁻¹. The like results for `CC(C)CN1C=C(C(=O)c2ccc3c(c2)CCO3)C(C)(C)CC1` [Compound 18, (2,3-dihydrobenzofuran-5-yl)(1-isobutyl-4,4-dimethyl-1,4,5,6-tetrahydropyridin-3-yl)methanone] were, in that order, 320 nm and 22000 M⁻¹ cm⁻¹. On the same counts, the results for `CC(C)CN1C=C(C(=O)c2ccc(-c3ccccc3)cc2)C(C)(C)CC1` [Compound 19, [1,1′-biphenyl]-4-yl(1-isobutyl-4,4-dimethyl-1,4,5,6-tetrahydropyridin-3-yl)methanone] are 320 nm and 18000 M⁻¹ cm⁻¹. On to `CC(C)CN1C=C(C(=O)c2ccccc2)C(C)(C)CC1` [Compound 20, (1-isobutyl-4,4-dimethyl-1,4,5,6-tetrahydropyridin-3-yl)(phenyl)methanone], for which the “UV λmax” value is reported as 316 nm and the “ε (molar extinction coefficient)” value was determined as 19000 M⁻¹ cm⁻¹.

Consider `CC(C)CN1C=C(C(=O)c2ccc(C(=O)C3=CN(CC(C)C)CCC3(C)C)cc2)C(C)(C)CC1` [Compound 21, 1,4-phenylenebis ((1-isobutyl-4,4-dimethyl-1,4,5,6-tetrahydropyridin-3-yl)methanone)], for which the “UV λmax” value came to 320 nm and the “ε (molar extinction coefficient)” value worked out at 20000 M⁻¹ cm⁻¹. For the compound `CC(C)CN1C=C(C(=O)c2cc(C(=O)C3=CN(CC(C)C)CCC3(C)C)cc(C(=O)C3=CN(CC(C)C)CCC3(C)C)c2)C(C)(C)CC1` [Compound 22, benzene-1,3,5-triyltris ((1-isobutyl-4,4-dimethyl-1,4,5,6-tetrahydropyridin-3-yl)methanone)], the “UV λmax” value is given as 316 nm and the “ε (molar extinction coefficient)” value worked out at 33000 M⁻¹ cm⁻¹. As to `CC(C)CN1C=C(C(=O)c2ccc(C(=O)c3ccccc3)cc2)C(C)(C)CC1` [Compound 23, (4-benzoylphenyl)(1-isobutyl-4,4-dimethyl-1,4,5,6-tetrahydropyridin-3-yl)methanone], the “UV λmax” value is on record as 295 nm and the “ε (molar extinction coefficient)” value stood at 7500 M⁻¹ cm⁻¹. In the case of `COc1ccc(C(=O)C2=CN(CC(C)C)CCC2(C)C)c(OC)c1` [Compound 24, 2,4-dimethoxyphenyl(1-isobutyl-4,4-dimethyl-1,4,5,6-tetrahydropyridin-3-yl)methanone], the “UV λmax” value was 313 nm and the “ε (molar extinction coefficient)” value was 9500 M⁻¹ cm⁻¹. For the compound `CC(C)=CC(=O)C1=CN(CC(C)C)CCC1(C)C` [Compound 26, 1-(1-isobutyl-4,4-dimethyl-1,4,5,6-tetrahydropyridin-3-yl)-3-methylbut-2-en-1-one], the “UV λmax” value was 310 nm and 314 nm; the “ε (molar extinction coefficient)” value amounted to 19000 M⁻¹ cm⁻¹. For `C=C(C)CC(=O)C1=CN(CC(C)C)CCC1(C)C` [Compound 27, 1-(1-isobutyl-4,4-dimethyl-1,4,5,6-tetrahydropyridin-3-yl)-3-methylbut-3-en-1-one], the “UV λmax” value is 306 nm and the “ε (molar extinction coefficient)” value is 14500 M⁻¹ cm⁻¹.

`C=C/C=C/CC(=O)C1=CN(CC(C)C)CCC1(C)C` [Compound 28, (E)-1-(1-isobutyl-4,4-dimethyl-1,4,5,6-tetrahydropyridin-3-yl)hexa-3,5-dien-1-one]: the “UV λmax” value is given as 311 nm.

As for `C=CCC(=O)C1=CN(CC(C)C)CCC1(C)C` [Compound 29, 1-(1-isobutyl-4,4-dimethyl-1,4,5,6-tetrahydropyridin-3-yl)but-3-en-1-one], the “UV λmax” value is reported as 310 nm. Take `CC(C)CN1C=C(C(=O)/C=C/c2ccccc2)C(C)(C)CC1` [Compound 31, (E)-1-(1-Isobutyl-4,4-dimethyl-1,4,5,6-tetrahydropyridin-3-yl)-3-phenylprop-2-en-1-one]: the “UV λmax” value amounted to 360 nm and the “ε (molar extinction coefficient)” value amounted to 16000 M⁻¹ cm⁻¹. On the same counts, the results for `C=CC(=O)C1=CN(CC(C)C)CCC1(C)C` [Compound 32, 1-(1-Isobutyl-4,4-dimethyl-1,4,5,6-tetrahydropyridin-3-yl)prop-2-en-1-one] are 331 nm and 20500 M⁻¹ cm⁻¹.

These data come from patent publication US10519111B2, “UV absorbing compounds, compositions comprising same and uses thereof” (CORAL SUNSCREEN PTY LTD, priority 2013, dated 2019).
